In patent publication US20250325469A1, “Inhibitors of atp synthase - cosmetic and therapeutic uses” (priority 2021, published 2025):
Changes are numbered by the printed parent chain. Names may count otherwise. Where two headings read alike, the source gives them in different places. Where no end group is shown, it is not given here. [ ]: non-standard residue; d: D form.

How the values were obtained:
[1] = cited from earlier work
[2] = rats, radioactively labelled [151]; cited from earlier work
[3] = cited from earlier work; remark: listed apart in the source
cells [4] = conditions: cited from earlier work
cells [5] = conditions: variant with side-chain chiral amino acids swopped; cited from earlier work
[6] = 5.5 (±1.7) ug/kg/min i.v. with inhaled nitric oxide (5 p.p.m.), across all subjects [183]; cited from earlier work
[7] = cited from earlier work; remark: listed apart in the source
[8] = cited from earlier work; remark: listed apart in the source
[9] = target: bovine F1F0 ATP hydrolysis (Bos taurus, UniProt P00829+P19483); conditions: cited from earlier work
[10] = tested on: oxidative phosphorylation; conditions: State 3 respiration, H+/T+ vs wild-type [130]; cited from earlier work
F1F0 ATP hydrolysis [11] = target: T1, F1F0 ATP hydrolysis (Mus musculus, UniProt P56480+Q03265); conditions: cited from earlier work
T1 construct: F1F0 ATP hydrolysis is 35% less in brain mitochondria isolated from H+/T+ than wild-type mice; from tissue; host or cells: mitochondria isolated from brain of wild-type and H+/T+ double transgenic mice

F1F0 ATP hydrolysis [12] = target: T1, F1F0 ATP hydrolysis; conditions: brain mitochondria of H+/T+ vs wild-type mice [130]; cited from earlier work
[13] = mouse, in vivo; cited from earlier work
[14] = tested on: oxidative phosphorylation; conditions: cited from earlier work
ROS (superoxide) = assay: MitoSOX ROS (superoxide) signal in cultured cortical neurons of H+/T+ mice; type: cell-based, mouse; conditions: H+/T+ vs wild-type mitochondria, corrected for MitoSOX accumulation
Source text: (FIG. 6B) Experiments with cortical neurons in culture, after being cultured for 9-10 days, after being extracted from mouse embryos. […] As in FIG. 6A. But this time in cultured cortical neurons from the mice (embryos), wherein the mitochondria of H+/T+ mice have a more hyperpolarized ΨIM (accumulate more TMRM^+) than wild-type. But, as in FIG. 6A, have a more depolarized ΨIM upon FCCP/respiratory chain inhibitor (antimycin A/rotenone) administration. A typical value for ΨIM in normal mitochondria is −140 mV and if we equate the 5 a.u. value for wild-type in the 2nd panel with −140 mV, then the 6 a.u. value of H+/T+here in the 2nd panel is −168 mV. This ΨIM disparity means that H+/T+ mitochondria accumulates more MitoSOX ROS (superoxide) reporting compound in their mitochondrial matrix, wherein this disparity can be calculated using the equation presented earlier, and this disparity is shown here, in the 3rd panel. With this MitoSOX accumulation disparity, one would expect a greater MitoSOX signal from H+/T+ mitochondria, to wild-type mitochondria, in the proportion shown in the 3rd panel. But what is actually experimentally observed is in the 4th panel. Thence H+/T+ mitochondria must produce 66% less ROS (superoxide) than wild-type, which fits with their lower oxidative respiration rate observed in (FIG. 6A). […]

[15] = tested on: oxidative phosphorylation; conditions: colon mitochondria, I/T Tet-on mice [136]; cited from earlier work
F1F0 ATP hydrolysis [16] = target: T1, F1F0 ATP hydrolysis; conditions: colon mitochondria, I/T Tet-on mice [136]; cited from earlier work
[17] = 7.47 ug/kg/min for 2 hours (60 mg), at the end of the infusion period
[18] = COPD patients, 100 mg oral daily for 1 year, at year end
[19] = COPD patients, 100 mg oral daily for 1 year [168]

C=CCNc1nc(NCC=C)nc(N2CCN(C(c3ccc(F)cc3)c3ccc(F)cc3)CC2)n1 [almitrine]
mean plasma concentration of almitrine ([1]; 8 μg/kg/min for 20 minutes, during infusion): 325 ng/mL
highest observed plasma almitrine concentration ([1]; 16 μg/kg/min for 1 hour [177]): ~1,600 ng/ml
plasma almitrine concentration, all subjects but one ([1]; 16 μg/kg/min for 1 hour, 2 hours after the infusion stopped [177]): below 400 ng/ml
plasma almitrine concentration, all subjects ([1]; 16 μg/kg/min for 1 hour, by 12 hours [177]): below 200 ng/ml
plasma almitrine concentration, all subjects ([1]; 16 μg/kg/min for 1 hour, during infusion [177]): greater than 600 ng/ml
mean plasma concentration of almitrine ([1]; 16 μg/kg/min, 20 minutes into the infusion): 659 ng/mL
tissue accumulation [2]: especially accumulated in the lungs
adverse side-effect ([3]; 8.3 μg/kg/min for 30 minutes [176]): no adverse side-effect was observed
plasma lactate concentrations ([3]; 16 μg/kg/min infusion): remained within the normal range in all patients
deleterious effects ([3]; 16.7 ug/kg/min for 1 hour): without deleterious effects

Kkwkmrrnqfwvkvqr (K[dK][dW][dK][dM][dR][dR][dN][dQ][dF][dW][dV][dK][dV][dQ][dR]; not fully specified (residue 1); printed as Kkwkmrrnqfwvkvqr; also: retroinverse) [Retroinverse penetratin]
cellular toxicity (cells [4]): some cellular toxicity
cellular penetration compared with penetratin (cells [5]): greater cellular penetration than penetratin

C=CCNc1nc(NCC=C)nc(N2CCN(C(c3ccc(F)cc3)c3ccc(F)cc3)CC2)n1 [almitrine dimesylate]
lowest observed almitrine plasma level [1, 17]: 242 ng/mL
mean almitrine plasma level [1, 17]: 327 ng/mL
mean almitrine plasma level ([1]; 7.47 ug/kg/min for 2 hours, 15 minutes afterwards): 157 ng/mL
mean almitrine plasma level ([1]; 7.47 ug/kg/min for 2 hours, 30 minutes afterwards): 154 ng/mL
mean almitrine plasma level ([1]; 7.47 ug/kg/min for 2 hours, 60 minutes afterwards): 105 ng/mL
mean almitrine plasma level ([1]; 7.47 ug/kg/min for 2 hours, 120 minutes afterwards): 67 ng/mL
mean almitrine plasma level ([1]; 7.47 ug/kg/min for 2 hours, 600 minutes afterwards): 55 ng/mL
increase of arterial pO2 [6]: > 30%
plasma [almitrine] ([7]; COPD patients, 50 mg twice daily for 8 weeks, 2 weeks after the study): 104 ng/mL
plasma [almitrine] before the morning dose ([7]; COPD patients, 50 mg twice daily, day 14): 93 ng/mL
plasma [almitrine] before the morning dose ([7]; COPD patients, 50 mg twice daily, day 28): 134 ng/mL
plasma [almitrine] before the morning dose ([7]; COPD patients, 50 mg twice daily, day 42): 148 ng/mL
plasma [almitrine] before the morning dose ([7]; COPD patients, 50 mg twice daily, day 56): 171 ng/mL
average trough plasma [almitrine] ([7]; COPD patients, 75 mg oral daily for 6 months, at study end): 302 ng/mL
mean plasma [almitrine] ([7]; COPD patients, 100 mg oral daily 2 months then 1 month none, cycle for 1 year, at end): 285 ng/mL
mean plasma [almitrine] [7, 18]: 409.35 ng/mL
trough plasma [almitrine] [7, 18]: 301.8 ng/mL
plasma [almitrine] ([7]; COPD patients, 100 mg twice daily for 8 weeks, 2 weeks after the study): 311 ng/mL
plasma [almitrine] before the morning dose ([7]; COPD patients, 100 mg twice daily, day 14): 268 ng/mL
plasma [almitrine] before the morning dose ([7]; COPD patients, 100 mg twice daily, day 28): 409 ng/mL
plasma [almitrine] before the morning dose ([7]; COPD patients, 100 mg twice daily, day 42): 442 ng/mL
plasma [almitrine] before the morning dose ([7]; COPD patients, 100 mg twice daily, day 56): 572 ng/mL
plasma [almitrine] ([7]; COPD patients, 100-200 mg daily, those presenting peripheral neuropathy, at 3 months): 344 ng/mL
plasma [almitrine] ([7]; COPD patients, 100-200 mg daily, those presenting peripheral neuropathy, at 12 months): 617 ng/mL
plasma [almitrine] ([7]; COPD patients, 100-200 mg daily, those without peripheral neuropathy, at 3 months): 249 ng/mL
plasma [almitrine] ([7]; COPD patients, 100-200 mg daily, those without peripheral neuropathy, at 12 months): 387 ng/mL
plasma [almitrine], two 50 mg doses per day vs a single 100 mg oral dose ([7]; COPD patients, long term [167]): 2 to 3 times higher
time of peak plasma concentration of almitrine after consuming ([7]; human, oral [151]): 3.5 ± 0.7 h
oral dose bioavailable ([7]; on average across subjects): 85%
adverse effects ([8]; COPD patients, 75 mg oral daily for 6 months): no adverse effects
increase in occurrence of a nervous system disorder vs placebo control [8, 19]: 4%
increase in occurrence of paraesthesia vs placebo control [8, 19]: 5%
increase in occurrence of polyneuropathy vs placebo control [8, 19]: 3.6%
incidence of peripheral neuropathy, almitrine vs control group ([8]; COPD patients, 100-200 mg daily for a year [151]): 5 times higher
time at which peripheral neuropathy started to manifest, on average ([8]; COPD patients, 100-200 mg daily for a year, in a minority [151]): 7 months
safety ([8]; healthy subjects, 400 mg oral per day, short term [163]): safe

B1: yeast IF1 protein: IF1 protein sequence from yeast (protein, UniProt P01097 23-85, looked up)
F(1)-ATPase inhibitor IF(1), …: SEGSTGTPRGSGSEDSFVKRERATEDFFVRQREKEQLRHLKEQLEKQRKKIDSLENKIDSMTK
inhibition of bovine F1F0 ATP hydrolysis [9]: can inhibit

B2: human H49K IF1 protein: mutant human IF1 protein with a H49K substitution, expressed as transgene in mice (protein, UniProt Q9UII2 26-106, looked up, variant H49K)
ATPase inhibitor, …: GSDQSENVDRGAGSIREAGGAFGKREQAEEERYFRAQSREQLAALKKHKEEEIVHHKKEIERLQKEIERHKQKIKMLKHDD
modifications: expressed as transgene in mice
less O2 consumption [10]: ~60%
inhibition of F1F0 ATP hydrolysis capability (F1F0 ATP hydrolysis [11]; Tet-off mice [135]): 25%
inhibition of F1F0 ATP hydrolysis capability (F1F0 ATP hydrolysis [11]; Tet-on mice [135]): 40%
reduction of F1F0 ATP hydrolysis capability (F1F0 ATP hydrolysis [12]): 35%
weight, life span and cage behavior [13]: no differences in weight, life span and cage behavior when compared to controls after one year of follow up
decrease of State 3 respiration rate ([14]; Tet-off mice [135]): 37%
decrease of State 3 respiration rate ([14]; Tet-on mice [135]): 44%
less ROS (superoxide) produced (ROS (superoxide)): 66%

B3: human IF1 protein: Non-mutant human IF1 protein expressed as transgene in mouse intestine cells (protein, UniProt Q9UII2 26-106, looked up)
ATPase inhibitor, …: B2 ATPase inhibitor, … with K49H
decrease of oligomycin sensitive respiration rate [15]: 60%
inhibition of F1F0 ATP hydrolysis capability (F1F0 ATP hydrolysis [16]): 35%
